Measured values as given in ChEMBL document CHEMBL3639359, “Compounds as cannabinoid receptor ligands” (2014).

Assays:
Cannabinoid receptor 2 [1] = molecular target: T1, Cannabinoid receptor 2 (Rattus norvegicus, UniProt Q9QZN9); assay: Radioligand Binding Assay: HEK293 cells stably expressing rat CB2 receptors were grown until a confluent monolayer was formed. Briefly, the cells were harvested and homogenized in TE buffer (50 mM Tris-HCl, 1 mM MgCl2, and 1 mM EDTA) using a polytron for 2x 10 second bursts in the presence of protease inhibitors, followed by centrifugation at 45,000x g for 20 minutes. The final membrane pellet was re-homogenized in storage buffer (50 mM Tris-HCl, 1 mM MgCl2, and 1 mM EDTA and 10% sucrose) and frozen at -78 C. until used. Saturation binding reactions were initiated by the addition of membrane preparation (protein concentration of 20 ug/well for rat CB2) into wells of a deep well plate containing [3H]CP 55,940 (120 Ci/mmol, a nonselective CB agonist commercially available from Tocris) in assay buffer (50 mM Tris, 2.5 mM EDTA, 5 mM MgCl2, and 0.5 mg/mL fatty acid free BSA, pH 7.4). After 45 min incubation at 30u C., binding reaction was terminated by the addition of 300 ul/well of cold assay buffer.; assay type: cell membranes
T1 sequence (Q9QZN9 whole entry): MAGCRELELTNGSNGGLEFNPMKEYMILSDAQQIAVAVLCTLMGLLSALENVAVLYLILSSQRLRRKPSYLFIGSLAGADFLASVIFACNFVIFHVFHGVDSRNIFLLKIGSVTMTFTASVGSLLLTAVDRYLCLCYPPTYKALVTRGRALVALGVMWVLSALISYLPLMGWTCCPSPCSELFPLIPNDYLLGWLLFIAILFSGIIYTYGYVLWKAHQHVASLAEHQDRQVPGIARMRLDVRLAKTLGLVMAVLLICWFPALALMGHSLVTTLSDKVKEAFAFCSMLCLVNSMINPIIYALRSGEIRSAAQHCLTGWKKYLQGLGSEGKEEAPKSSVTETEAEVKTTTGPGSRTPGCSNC

Cannabinoid receptor 2 [2] = molecular target: Cannabinoid receptor 2 (Homo sapiens, UniProt P34972); assay: Radioligand Binding Assay: HEK293 cells stably expressing human CB2 receptors were grown until a confluent monolayer was formed. Briefly, the cells were harvested and homogenized in TE buffer (50 mM Tris-HCl, 1 mM MgCl2, and 1 mM EDTA) using a polytron for 2x 10 second bursts in the presence of protease inhibitors, followed by centrifugation at 45,000xg for 20 minutes. The final membrane pellet was re-homogenized in storage buffer (50 mM Tris-HCl, 1 mM MgCl2, and 1 mM EDTA and 10% sucrose) and frozen at -78 C. until used. Saturation binding reactions were initiated by the addition of membrane preparation (protein concentration of 5 ug/well for human CB2) into wells of a deep well plate containing [3H]CP 55,940 (120 Ci/mmol, a nonselective CB agonist commercially available from Tocris) in assay buffer (50 mM Tris, 2.5 mM EDTA, 5 mM MgCl2, and 0.5 mg/mL fatty acid free BSA, pH 7.4). After 90 min incubation at 30 C., binding reaction was terminated by the addition of 300 uL/well of cold assay buffer.; assay type: cell membranes
Chain of Cannabinoid receptor 2 (Homo sapiens, UniProt P34972) (P34972 whole entry): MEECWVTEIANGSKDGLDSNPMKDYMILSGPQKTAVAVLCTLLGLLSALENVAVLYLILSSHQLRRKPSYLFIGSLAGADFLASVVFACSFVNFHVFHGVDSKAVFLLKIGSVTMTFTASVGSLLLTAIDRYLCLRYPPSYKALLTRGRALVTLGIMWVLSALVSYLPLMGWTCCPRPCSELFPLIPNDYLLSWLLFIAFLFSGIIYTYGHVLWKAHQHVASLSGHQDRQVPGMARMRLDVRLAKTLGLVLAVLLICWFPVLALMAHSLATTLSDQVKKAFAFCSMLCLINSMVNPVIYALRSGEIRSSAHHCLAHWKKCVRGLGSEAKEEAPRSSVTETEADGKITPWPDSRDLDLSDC

`CCCCn1nc(C(C)(C)C)s/c1=N\C(=O)c1cc(C(F)(F)F)ccc1ON=C(C)C` showed a Ki (Cannabinoid receptor 2 [1]) of 5.2 nM and a Ki (Cannabinoid receptor 2 [2]) of 12 nM.
